Among the data in patent publication US10457703B2, “Bile acid derivatives as FXR/TGR5 agonists and methods of use thereof” (ENANTA PHARMACEUTICALS, INC., priority 2015, dated 2019) are EC50 and Emax values, retold here.

The assay deals with human FXR (NR1H4) (Homo sapiens (Human), UniProt Q96RI1). Briefly: Human FXR (NR1H4) Assay (Gal4 promoter driven luciferase reporter, Indigo Bioscience kit).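 For Efficacy (%): 100% equals the efficacy of CDCA; efficacy normalized to CDCA set as 100%.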 The class given is cell-based. As to conditions: for EC50: Human FXR (NR1H4) Assay, potency ranges; for Emax: read-out: Efficacy (%). The procedure, abridged: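 CHO reporter cells expressing human FXR with an FXR-responsive luciferase reporter, treated with compound doses at 0.2% DMSO. Incubation lasted 22 h at 37 °C before luciferase detection reagent was added. Luminescence was then read.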
Chain of human FXR (NR1H4) (Q96RI1 whole entry, the tested form may be a part): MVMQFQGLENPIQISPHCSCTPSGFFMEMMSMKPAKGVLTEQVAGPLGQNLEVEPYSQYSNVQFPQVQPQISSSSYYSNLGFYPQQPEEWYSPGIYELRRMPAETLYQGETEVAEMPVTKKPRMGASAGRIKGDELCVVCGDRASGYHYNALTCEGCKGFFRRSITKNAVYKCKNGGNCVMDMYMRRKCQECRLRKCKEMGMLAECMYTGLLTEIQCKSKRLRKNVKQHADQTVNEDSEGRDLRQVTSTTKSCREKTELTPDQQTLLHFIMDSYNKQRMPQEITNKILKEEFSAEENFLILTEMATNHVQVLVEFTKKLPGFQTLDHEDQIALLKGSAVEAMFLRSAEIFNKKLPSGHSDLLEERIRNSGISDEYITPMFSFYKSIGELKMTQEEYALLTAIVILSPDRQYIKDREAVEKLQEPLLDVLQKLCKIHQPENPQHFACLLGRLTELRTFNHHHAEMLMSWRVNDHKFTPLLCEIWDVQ
On the technique in general: In a reporter assay the amount or activity of a reporter protein is the signal.

The term EC50 denotes the midpoint of the concentration-response curve. Low readings indicate an effect from little substance, high ones a need for much substance.

For the compound `CC[C@H]1[C@@H](O)[C@@H]2[C@H](CC[C@]3(C)[C@@H]([C@H](C)CCOC(=O)NS(=O)(=O)c4cnn(C)c4)CC[C@@H]23)[C@@]2(C)CC[C@@H](O)C[C@@H]12` [Example 82], the EC50 fell in the range of 1000 to 10000 nM and the Emax turned out to be 294%.
For `CC[C@H]1[C@@H](O)[C@@H]2[C@H](CC[C@]3(C)[C@@H]([C@H](C)CCOC(=O)NCc4ccc(C(C)(C)C)cc4)CC[C@@H]23)[C@@]2(C)CC[C@@H](O)C[C@@H]12` [Example 189] the same measures were 1000 to 10000 nM and 215%.
The like results for `CC[C@H]1[C@@H](O)[C@@H]2[C@H](CC[C@]3(C)[C@@H]([C@H](C)CCOC(=O)NS(=O)(=O)c4ccc(OCC(F)(F)F)cc4)CC[C@@H]23)[C@@]2(C)CC[C@@H](O)C[C@@H]12` [Example 101] were, in that order, 100 to 1000 nM and 289%.
On to `CC[C@H]1[C@@H](O)[C@@H]2[C@H](CC[C@]3(C)[C@@H]([C@H](C)CCOC(=O)NS(=O)(=O)C4CCC4)CC[C@@H]23)[C@@]2(C)CC[C@@H](O)C[C@@H]12` [Example 104-i], for which the EC50 was less than 100 nM and the Emax was determined as 314%.
In the case of `CC[C@H]1[C@@H](O)[C@@H]2[C@H](CC[C@]3(C)[C@@H]([C@H](C)CCOC(=O)NCC(=O)O)CC[C@@H]23)[C@@]2(C)CC[C@@H](O)C[C@@H]12` [Example 157], the EC50 fell in the range of 1000 to 10000 nM and the Emax stood at 178%.
Turning to `CC[C@H]1[C@@H](O)[C@@H]2[C@H](CC[C@]3(C)[C@@H]([C@H](C)CCOC(=O)NS(=O)(=O)N4CCCCC4)CC[C@@H]23)[C@@]2(C)CC[C@@H](O)C[C@@H]12` [Example 69], the concentration for a half-maximal effect (EC50) was less than 100 nM and the Emax was 368%.
`CC[C@H]1[C@@H](O)[C@@H]2[C@H](CC[C@]3(C)[C@@H]([C@H](C)CCOC(=O)N4CCC[C@H](CO)C4)CC[C@@H]23)[C@@]2(C)CC[C@@H](O)C[C@@H]12` [Example 203]: the EC50 fell in the range of 100 to 1000 nM and the Emax was found to be 380%.
Turning to `CC[C@H]1[C@@H](O)[C@@H]2[C@H](CC[C@]3(C)[C@@H]([C@H](C)CCOC(=O)NC(C)CO)CC[C@@H]23)[C@@]2(C)CC[C@@H](O)C[C@@H]12` (stereo partly drawn) [Example 139], the EC50 fell in the range of 100 to 1000 nM and the Emax amounted to 310%.
In the case of `CC[C@H]1[C@@H](O)[C@@H]2[C@H](CC[C@]3(C)[C@@H]([C@H](C)CCOC(=O)NS(=O)(=O)C4CCCCC4)CC[C@@H]23)[C@@]2(C)CC[C@@H](O)C[C@@H]12` [Example 104-a], the EC50 is less than 100 nM and the Emax came to 242%.
For the compound `CC[C@H]1[C@@H](O)[C@@H]2[C@H](CC[C@]3(C)[C@@H]([C@H](C)COC(=O)NS(=O)(=O)c4ccc(N5CCCCC5)nc4)CC[C@@H]23)[C@@]2(C)CC[C@@H](O)C[C@@H]12` [Example 14], the 50% effective concentration (EC50) is less than 100 nM and the Emax amounted to 270%.
For `CC[C@H]1[C@@H](O)[C@@H]2[C@H](CC[C@]3(C)[C@@H]([C@H](C)CCOC(=O)NS(=O)(=O)CCC(=O)OC)CC[C@@H]23)[C@@]2(C)CC[C@@H](O)C[C@@H]12` [Example 92] the same measures were 1000 to 10000 nM and 218%.
For the compound `CC[C@H]1[C@@H](O)[C@@H]2[C@H](CC[C@]3(C)[C@@H]([C@H](C)CCOC(=O)N4CCCCC4CO)CC[C@@H]23)[C@@]2(C)CC[C@@H](O)C[C@@H]12` (stereo partly drawn) [Example 180], the EC50 lay in the range of 100 to 1000 nM and the Emax is 390%.
The like results for `CC[C@H]1[C@@H](O)[C@@H]2[C@H](CC[C@]3(C)[C@@H]([C@H](C)CCOC(=O)N4CCc5sccc5C4)CC[C@@H]23)[C@@]2(C)CC[C@@H](O)C[C@@H]12` [Example 173] were, in that order, 100 to 1000 nM and 209%.
The like results for `CC[C@H]1[C@@H](O)[C@@H]2[C@H](CC[C@]3(C)[C@@H]([C@H](C)CCCOC(=O)NCc4ccccc4)CC[C@@H]23)[C@@]2(C)CC[C@@H](O)C[C@@H]12` [Example 124] were, in that order, 100 to 1000 nM and 225%.
Take `CC[C@H]1[C@@H](O)[C@@H]2[C@H](CC[C@]3(C)[C@@H]([C@H](C)CCOC(=O)NC4CCC4)CC[C@@H]23)[C@@]2(C)CC[C@@H](O)C[C@@H]12` [Example 133]: the EC50 was less than 100 nM and the Emax was 283%.
Regarding `CC[C@H]1[C@@H](O)[C@@H]2[C@H](CC[C@]3(C)[C@@H]([C@H](C)CCCOC(=O)NS(=O)(=O)c4cccc(C(C)(C)C)c4)CC[C@@H]23)[C@@]2(C)CC[C@@H](O)C[C@@H]12` [Example 112], the EC50 is 100 to 1000 nM and the Emax was 123%.
`CC[C@H]1[C@@H](O)[C@@H]2[C@H](CC[C@]3(C)[C@@H]([C@H](C)CCOC(=O)Nc4ccc5ccccc5c4)CC[C@@H]23)[C@@]2(C)CC[C@@H](O)C[C@@H]12` [Example 197]: the EC50 is 1000 to 10000 nM and the Emax came to 101%.
For `CC[C@H]1[C@@H](O)[C@@H]2[C@H](CC[C@]3(C)[C@@H]([C@H](C)CCOC(=O)NS(=O)(=O)c4cccc(Cl)c4)CC[C@@H]23)[C@@]2(C)CC[C@@H](O)C[C@@H]12` [Example 65], the EC50 is less than 100 nM and the Emax is 322%.
Regarding `CC[C@H]1[C@@H](O)[C@@H]2[C@H](CC[C@]3(C)[C@@H]([C@H](C)CCOC(=O)NS(=O)(=O)c4ccc5c(c4)OCCO5)CC[C@@H]23)[C@@]2(C)CC[C@@H](O)C[C@@H]12` [Example 90], the EC50 is less than 100 nM and the Emax stood at 225%.
With `CC[C@H]1[C@@H](O)[C@@H]2[C@H](CC[C@]3(C)[C@@H]([C@H](C)COC(=O)NS(=O)(=O)c4ccc(N5CCOCC5)nc4)CC[C@@H]23)[C@@]2(C)CC[C@@H](O)C[C@@H]12` [Example 15], the EC50 is less than 100 nM and the Emax amounted to 197%.
In the case of `CC[C@H]1[C@@H](O)[C@@H]2[C@H](CC[C@]3(C)[C@@H]([C@H](C)CCOC(=O)NS(=O)(=O)c4cccc(C(C)(C)C)c4)CC[C@@H]23)[C@@]2(C)CC[C@@H](O)C[C@@H]12` [Example 54], the EC50 lay within 100 to 1000 nM and the Emax was 290%.
`CCOC(=O)CNC(=O)OCC[C@@H](C)[C@H]1CC[C@H]2[C@@H]3[C@H](O)[C@H](CC)[C@@H]4C[C@H](O)CC[C@]4(C)[C@H]3CC[C@]12C` [Example 156]: the EC50 was 100 to 1000 nM and the Emax was found to be 193%.
`CC[C@H]1[C@@H](O)[C@@H]2[C@H](CC[C@]3(C)[C@@H]([C@H](C)CCOC(=O)N[C@@H]4CCC[C@H]4O)CC[C@@H]23)[C@@]2(C)CC[C@@H](O)C[C@@H]12` [Example 207]: the EC50 fell in the range of 100 to 1000 nM and the Emax was 188%.
For `CC[C@H]1[C@@H](O)[C@@H]2[C@H](CC[C@]3(C)[C@@H]([C@H](C)CCOC(=O)N[C@H](C)CCO)CC[C@@H]23)[C@@]2(C)CC[C@@H](O)C[C@@H]12` [Example 172] the same measures were 100 to 1000 nM and 201%.
